Test system: plasma growth hormone
Assay: Evaluation of peptides in vivo in sheep: plasma GH after IV injection of GRF analogs
Parameters: species or system wether lambs
Details: lambs injected intravenously at 100 ng/kg; for Plasma GH (ng/ml) Post-inj Mean: two hours after treatment, means of 8 samples/animal from 8 animals
Procedure: The purpose of this experiment is to compare the GH releasing activities of several GRF analogs selected for expected high potency and the lack of either a terminal amide or a D-amino acid. The analogs to be compared in wether lambs at 100 ng/kg (IV) are tri-isopropyl-GRF(1-29)-NH₂, tri-isopropyl-GRF(1-29)-OH, tri-isopropyl-GRF(1-40)OH, D-ala², arg^12,21-GRF (1-29)-OH, D-ala², arg^12,21-GRF(1-29)-NH₂, GRF(1-40)-OH and GRF(1-29)-NH₂
A balanced 8 x 8 Latin square design will be used to test the following 8 treatments:
The diet used in these evaluations is a standard sheep diet (pelleted) and fresh water ad libitum. All animals are fed one daily.
The animals are individually identified by numbered ear tags and held in numbered metabolism cages.
Sheep are maintained in individual metabolism cages at all times. Each sheep has previously received an indwelling jugular cannula which is flushed daily with heparinized (400-800 IU/ml) sterile saline to help maintain patency.
All compounds are solubilized at 5 ug/ml in sterile saline containing 1% Tween 80 and injected intravenously at 100 ng/kg. Control lambs receive equal volumes of the vehicle only. The drugs are prepared each day just prior to injection to minimize sticking to the vials.
Blood is collected in heparinized tubes at 15 minute intervals for one hours prior to and for two hours after the treatments are administered. Plasma samples are removed by centrifugation and frozen.
Body weights of each animal is taken at the start of the experiment and once during treatment.
Blood samples are taken from each animal at 15 minute intervals for 3 hours each day during the 8 day trial period. The samples are analyzed for plasma growth hormone (ng/ml). Data obtained are reported below as near values obtained for each treatment.

SMILES | Plasma GH (ng/ml) Peak | Plasma GH (ng/ml) Post-inj Mean
CC[C@H](C)[C@H](NC(=O)[C@H](C)NC(=O)[C@H](CC(=O)O)NC(=O)[C@H](C)NC(=O)[C@@H](N)Cc1ccc(O)cc1)C(=O)N[C@@H](Cc1ccccc1)C(=O)N[C@H](C(=O)N[C@@H](CC(N)=O)C(=O)N[C@@H](CO)C(=O)N[C@@H](Cc1ccc(O)cc1)C(=O)N[C@@H](CCCNC(=N)N)C(=O)N[C@@H](CCCCN)C(=O)N[C@H](C(=O)N[C@@H](CC(C)C)C(=O)NCC(=O)N[C@@H](CCC(N)=O)C(=O)N[C@@H](CC(C)C)C(=O)N[C@@H](CO)C(=O)N[C@@H](C)C(=O)N[C@@H](CCCNC(=N)N)C(=O)N[C@@H](CCCCN)C(=O)N[C@@H](CC(C)C)C(=O)N[C@@H](CC(C)C)C(=O)N[C@@H](CCC(N)=O)C(=O)N[C@@H](CC(=O)O)C(=O)N[C@H](C(=O)N[C@@H](CCSC)C(=O)N[C@@H](CO)C(=O)N[C@@H](CCCNC(=N)N)C(=O)N[C@@H](CCC(N)=O)C(=O)N[C@@H](CCC(N)=O)C(=O)NCC(=O)N[C@@H](CCC(=O)O)C(=O)N[C@@H](CO)C(=O)N[C@@H](CC(N)=O)C(=O)N[C@@H](CCC(N)=O)C(=O)N[C@@H](CCC(=O)O)C(=O)N[C@@H](CCCNC(=N)N)C(=O)NCC(=O)N[C@@H](C)C(=O)O)[C@@H](C)CC)C(C)C)[C@@H](C)O [GRF(1-40)-OH] | 92.3 ng/mL | 25.5 ng/mL
CC[C@H](C)[C@H](NC(=O)[C@H](C)NC(=O)[C@H](CC(=O)O)NC(=O)[C@H](C)NC(=O)[C@H](Cc1ccc(O)cc1)NC(C)C)C(=O)N[C@@H](Cc1ccccc1)C(=O)N[C@H](C(=O)N[C@@H](CC(N)=O)C(=O)N[C@@H](CO)C(=O)N[C@@H](Cc1ccc(O)cc1)C(=O)N[C@@H](CCCNC(=N)N)C(=O)N[C@@H](CCCCNC(C)C)C(=O)N[C@H](C(=O)N[C@@H](CC(C)C)C(=O)NCC(=O)N[C@@H](CCC(N)=O)C(=O)N[C@@H](CC(C)C)C(=O)N[C@@H](CO)C(=O)N[C@@H](C)C(=O)N[C@@H](CCCNC(=N)N)C(=O)N[C@@H](CCCCNC(C)C)C(=O)N[C@@H](CC(C)C)C(=O)N[C@@H](CC(C)C)C(=O)N[C@@H](CCC(N)=O)C(=O)N[C@@H](CC(=O)O)C(=O)N[C@H](C(=O)N[C@@H](CCSC)C(=O)N[C@@H](CO)C(=O)N[C@@H](CCCNC(=N)N)C(=O)N[C@@H](CCC(N)=O)C(=O)N[C@@H](CCC(N)=O)C(=O)NCC(=O)N[C@@H](CCC(=O)O)C(=O)N[C@@H](CO)C(=O)N[C@@H](CC(N)=O)C(=O)N[C@@H](CCC(N)=O)C(=O)N[C@@H](CCC(=O)O)C(=O)N[C@@H](CCCNC(=N)N)C(=O)NCC(=O)N[C@@H](C)C(=O)O)[C@@H](C)CC)C(C)C)[C@@H](C)O [tri-isopropyl-GRF(1-40)-OH, [N ^α-Isopropyl-Tyr¹, N ^ε-isopropyl-Lys^12,21]GRF(1-40)OH] | 108.6 ng/mL | 34.0 ng/mL

Source: patent publication EP0314866A2, “Novel alkylated hormonereleasing peptides and method of treating mammals therewith” (The Administrators of The Tulane University Educational Fund, priority 1987, dated 1989)
